From patent US20190029974A1, “METHODS FOR TREATING SKIN DISORDERS AND CONDITIONS UTILIZING HAPTENS” (RXi Pharmaceuticals Corporation, priority 2015, published 2019)

Experiments:
[1] = Solubility of DPCP in solvents for gel and ointment formulations; type: physicochemical
Experimental: (§1) The compatibility and solubility of DPCP was determined in both isopropyl myristate (IPM) as well as Polysorbate 80 (PS80). […] Next, the stability of DPCP in these solvents was determined. A solution of 0.4% DPCP in isopropyl myristate and a solution of 0.4% DPCP in Polysorbate 80 was placed at 50° C. for two weeks. The stability of DPCP in these solvents was determined using reverse phase HPLC on a C18 column.

[2] = Stability of 0.4% DPCP solutions in solvents at 50° C., reverse phase HPLC on a C18 column; type: physicochemical
Experimental: as §1
For the development of a gel, the stability of DPCP was determined in both Ethanol (ETOH) and Isopropanol (IPA) was determined (0.4% DPCP solutions in each solvent was placed at 50° C. for two weeks; FIG. 3. All solutions contained 0.1% BHT). […] However, DPCP was stable in IPA. The stability of DPCP in the above solvents was determined using reverse phase HPLC on a C18 column.

## O=c1c(-c2ccccc2)c1-c1ccccc1 [DPCP, Diphenylcyclopropenone]
[1]; Polysorbate 80 (PS80)
  solubility of DPCP in PS80: highly soluble
[1]; isopropyl myristate (IPM)
  solubility of DPCP in IPM: about 1.1 % w/w
[2]; 0.4% DPCP in Polysorbate 80, 50° C., two weeks
  stability of DPCP in PS80: some degradation
[2]; 0.4% DPCP in ethanol, 0.1% BHT, in the presence of citric acid, 50° C., two weeks
  stability of DPCP in ETOH: Some degradation
[2]; 0.4% DPCP in isopropanol, 0.1% BHT, 50° C., two weeks
  stability of DPCP in IPA: stable
[2]; 0.4% DPCP in isopropyl myristate, 50° C., two weeks
  stability of DPCP in IPM: stable
[2]; PS80 with butylated hydroxytoloune (BHT)
  effect of BHT on degradation of DPCP in PS80: reduce the amount of degradation
